The values below come from PMC10008561 (Nature Communications, 2023).

The test system of assay [1] is KOR. It counts as cell-based, human.
In assay [2] the test system is KOR. The settings on record: ERK activation versus p38 activation; cited from earlier work.
Assay [3] deals with T1, human KOR (β-arrestin 2) (Homo sapiens, UniProt P41145, G319L).
T1 construct: expressed in transfected cells; host or cells: HEK293T
The assay is described as follows: cell-based. Conditions: HEK-293T.

Assay [4] concerns the target T2, human KOR (β-arrestin 2) (Homo sapiens, UniProt P41145).
T2 construct: expressed in transfected cells; host or cells: HEK293T
The assay is described as follows: cell-based.

For assay [5], the target named is T3, human KOR (β-arrestin 2) (Homo sapiens, UniProt P41145, R271A).
T3 construct: expressed in transfected cells; host or cells: HEK293T
T3 sequence (P41145 whole entry R271A): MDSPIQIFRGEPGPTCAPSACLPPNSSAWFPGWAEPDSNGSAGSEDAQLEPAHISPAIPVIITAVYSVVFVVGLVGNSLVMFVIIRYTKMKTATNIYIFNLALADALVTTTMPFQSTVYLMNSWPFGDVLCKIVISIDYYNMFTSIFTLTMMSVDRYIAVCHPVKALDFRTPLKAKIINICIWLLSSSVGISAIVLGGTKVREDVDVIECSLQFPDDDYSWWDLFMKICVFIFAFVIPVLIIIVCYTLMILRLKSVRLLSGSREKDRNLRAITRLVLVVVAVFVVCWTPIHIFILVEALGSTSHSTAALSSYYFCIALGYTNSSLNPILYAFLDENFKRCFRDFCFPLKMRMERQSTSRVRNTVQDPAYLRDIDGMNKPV
Put plainly: cell-based. Conditions: HEK-293T.

The target of assay [6] is T4, human KOR (β-arrestin 2) (Homo sapiens, UniProt P41145, R170A).
T4 construct: expressed in transfected cells; host or cells: HEK293T
T4 sequence (P41145 whole entry R170A): as the sequence (P41145 whole entry R271A) above, with R170A, A271R counted along it
The assay is described as follows: cell-based. Conditions: HEK-293T.

The target of assay [7] is T5, human KOR (β-arrestin 2) (Homo sapiens, UniProt P41145, N141A).
T5 construct: expressed in transfected cells; host or cells: HEK293T
T5 sequence (P41145 whole entry N141A): as the sequence (P41145 whole entry R271A) above, with N141A, A271R counted along it
The assay is described as follows: cell-based. The settings on record: HEK-293T.

The target of assay [8] is T6, human KOR (β-arrestin 2) (Homo sapiens, UniProt P41145, Y320L).
T6 construct: expressed in transfected cells; host or cells: HEK293T
T6 sequence (P41145 whole entry Y320L): as the sequence (P41145 whole entry R271A) above, with A271R, Y320L counted along it
The assay is described as follows: cell-based. Conditions: HEK-293T.

In assay [9] the target is T7, human KOR (β-arrestin 2) (Homo sapiens, UniProt P41145, D266A).
T7 construct: expressed in transfected cells; host or cells: HEK293T
T7 sequence (P41145 whole entry D266A): as the sequence (P41145 whole entry R271A) above, with D266A, A271R counted along it
Put plainly: cell-based. Conditions: HEK-293T.

The target of assay [10] is T8, human KOR (β-arrestin 2) (Homo sapiens, UniProt P41145, R274A).
T8 construct: expressed in transfected cells; host or cells: HEK293T
T8 sequence (P41145 whole entry R274A): as the sequence (P41145 whole entry R271A) above, with A271R, R274A counted along it
The assay is described as follows: cell-based. The settings on record: HEK-293T.

Assay [11] has as its target T9, human KOR (β-arrestin 2) (Homo sapiens, UniProt P41145, K200A).
T9 construct: expressed in transfected cells; host or cells: HEK293T
Put plainly: cell-based. Conditions: HEK-293T.

The target of assay [12] is T10, human KOR (β-arrestin 2) (Homo sapiens, UniProt P41145, R257A).
T10 construct: expressed in transfected cells; host or cells: HEK293T
T10 sequence (P41145 whole entry R257A): as the sequence (P41145 whole entry R271A) above, with R257A, A271R counted along it
The assay is described as follows: cell-based. The settings on record: HEK-293T.

Assay [13] deals with T11, human KOR (β-arrestin 2) (Homo sapiens, UniProt P41145, T94V).
T11 construct: expressed in transfected cells; host or cells: HEK293T
T11 sequence (P41145 whole entry T94V): as the sequence (P41145 whole entry R271A) above, with T94V, A271R counted along it
Put plainly: cell-based. The settings on record: HEK-293T.

Assay [14] addresses T12, human KOR (β-arrestin 2) (Homo sapiens, UniProt P41145, D155A).
T12 construct: expressed in transfected cells; host or cells: HEK293T
Put plainly: cell-based. The settings on record: HEK-293T.

The target in assay [15] is T13, human KOR (β-arrestin 2) (Homo sapiens, UniProt P41145, F114L).
T13 construct: expressed in transfected cells; host or cells: HEK293T
T13 sequence (P41145 whole entry F114L): as the sequence (P41145 whole entry R271A) above, with F114L, A271R counted along it
The assay is described as follows: cell-based. Conditions: HEK-293T.

T2 sequence (P41145 whole entry): as the sequence (P41145 whole entry R271A) above, with A271R counted along it
T1 sequence (P41145 whole entry G319L): as the sequence (P41145 whole entry R271A) above, with A271R, G319L counted along it
T12 sequence (P41145 whole entry D155A): as the sequence (P41145 whole entry R271A) above, with D155A, A271R counted along it
T9 sequence (P41145 whole entry K200A): as the sequence (P41145 whole entry R271A) above, with K200A, A271R counted along it

In the case of `CN(C(=O)/C=C/c1ccoc1)[C@@H]1CC[C@@]2(O)[C@H]3Cc4ccc(O)c5c4[C@@]2(CCN3CC2CC2)[C@H]1O5` [Nalfurafine, nalfurafine], the “ΔΔLog τ/KA (95% confidence interval)” value in assay [1] was 0.78 (0.65 to 0.91). For the same compound, the “bias factor toward G protein signaling” value in [2] is 200. Moreover, the Emax in assay [3] was found to be 71%; in [4] (HEK-293T), 100 ± 4%; in assay [5], 101 ± 8.2%; in [6] it was 100 ± 8.6%; in assay [7], 90.6%; in assay [8], 65.9%. The maximal response (Emax) in [9] is 101%; in [10], 83.3%; in assay [11] it was 83.2%; in [12], 103%; in assay [13] it was 87.5%; in assay [14], 90.2%. The compound further yielded an Emax in [15] of 48.7%. The compound further registered an Emax% in [4] of 80%.
